From PMC7555330, “In Silico Identification and Biological Evaluation of Antioxidant Food Components Endowed with Human Carbonic Anhydrase IX and XII Inhibition” (Antioxidants, 2020)
Where two headings read alike, the source gives them in different places. Each block holds one molecule with its values, some of them ahead of it.

Legend:
[1] = target: T1, hCA II (Homo sapiens, UniProt P00918); parameters: method as in PMID 26498393; settings: stopped-flow CO2 hydrase assay; cited from earlier work
T1 construct: made in house

[2] = MTT cell viability assay; format: cell-based; settings: human, Caco-2 cells; Caco-2, 10 µM, 72 h after treatment, percentage of control
Procedure: The human colorectal cancer cells Caco-2 were maintained in Dulbecco’s Modified Eagle Medium (DMEM, Sigma-Aldrich, St. Louis, MO, USA) integrated with 10% of FBS (Fetal Bovine Serum, Sigma-Aldrich, St. Louis, MO, USA) and 1% P/S (Penicillin, Streptomycin, Sigma-Aldrich, St. Louis, MO, USA). Cells’ culture conditions were 5% CO2 incubator at 37 °C. Cell viability was assessed through an MTT assay: 1 × 10^4 cells/well were plated in a 96-well microplate and, two hours later, treated with 6, 12, and 14 (the latter dissolved in DMSO) at 10 µM concentration. After 24, 48, and 72 h, 20 µL of 3-(4,5-dimethylthiazol-2-yl)-2,5 diphenyl tetrazolium (MTT detection reagent, Sigma-Aldrich, St. Louis, MO, USA) was added on the plate at the final concentration of […], and incubated for two more hours. Culture agent was removed and 200 µL of isopropanol (0.04 M HCl) were added to solubilizeformazan crystals. Absorbance was measured at 560 nm by the Victor 3 reader.

[3] = target: T2, hCA I (Homo sapiens, UniProt P00915); parameters: method as in PMID 26498393; settings: stopped-flow CO2 hydrase assay; cited from earlier work
T2 construct: made in house

[4] = target: T1, hCA II; experiment: stopped-flow CO2 hydrase assay, hCA II; format: biochemical
Procedure: (§1) The CA-catalyzed CO2 hydration activity of the compounds reported was assayed by means of the Applied Photophysics stopped-flow instrument. Phenol red was used as a pH indicator at a concentration of 0.2 mM, the instrument was set at working maximum absorbance maximum of 557 nm, the solutions were buffered at pH 7.5 with 20 mM HEPES, and 20 mM Na2SO4 was added for keeping constant the ionic strength, to follow the initial rates of the enzyme-catalyzed CO2 hydration reaction for a period of 10–100 s. The CO2 concentrations for the determination of the kinetic parameters and inhibition constants ranged from 1.7 to 17 mM.
(§2) The uncatalyzed rates were determined in the same experimental manner and subtracted from the total observed values. Stock solutions of the potential inhibitor (0.1 mM) were prepared by using distilled deionized water, and the dilutions with the assay buffer were prepared up to 0.01 nM. The solutions containing the inhibitor and the enzyme were preincubated for 30 min at r.t. prior to performing the assay, in order to form the E−I adduct. The inhibition constants (KIS) were obtained by the nonlinear least squares methods using PRISM 3 and the Cheng−Prusoff equation, as reported earlier, and represent the mean from three different experimental determinations. All CA isoforms herein reported were recombinant and obtained in-house.

[5] = target: T3, hCA XII (Homo sapiens, UniProt O43570); experiment: stopped-flow CO2 hydrase assay, hCA XII; format: biochemical; settings: for selectivity index (SI; KI hCA IX/KI hCA XII): hCA XII over hCA IX
T3 construct: made in house
Procedure: as §1, §2

[6] = target: T2, hCA I; experiment: stopped-flow CO2 hydrase assay, hCA I; format: biochemical
Procedure: as §1, §2

[7] = target: T4, hCA IX (Homo sapiens, UniProt Q16790); experiment: stopped-flow CO2 hydrase assay, hCA IX; format: biochemical; settings: mean of three assays, errors ±5–10%
T4 construct: made in house
Procedure: as §1, §2

[8] = target: T4, hCA IX; settings: literature statement; cited from earlier work
[9] = target: T3, hCA XII; settings: literature statement; cited from earlier work

T3 sequence (O43570 25-354): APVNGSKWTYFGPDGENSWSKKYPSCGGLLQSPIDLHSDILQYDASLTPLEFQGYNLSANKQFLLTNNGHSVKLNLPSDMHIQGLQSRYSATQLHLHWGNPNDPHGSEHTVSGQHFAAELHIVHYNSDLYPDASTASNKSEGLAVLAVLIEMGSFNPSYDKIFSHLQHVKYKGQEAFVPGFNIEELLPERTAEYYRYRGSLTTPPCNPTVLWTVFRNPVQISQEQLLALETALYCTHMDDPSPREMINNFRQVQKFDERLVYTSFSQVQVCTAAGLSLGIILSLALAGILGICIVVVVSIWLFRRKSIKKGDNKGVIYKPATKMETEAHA
T2 sequence (P00915 whole entry): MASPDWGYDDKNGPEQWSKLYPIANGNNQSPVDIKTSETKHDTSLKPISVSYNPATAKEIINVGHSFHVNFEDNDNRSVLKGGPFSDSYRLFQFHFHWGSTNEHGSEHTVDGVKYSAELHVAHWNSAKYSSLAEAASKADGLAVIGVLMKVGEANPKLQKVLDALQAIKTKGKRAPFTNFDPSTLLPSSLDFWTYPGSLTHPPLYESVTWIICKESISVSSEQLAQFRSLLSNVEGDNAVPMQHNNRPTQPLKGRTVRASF

Compound: O=C(/C=C/c1ccc(O)c2c1[C@H](C(=O)O)[C@@H](c1ccc(O)c(O)c1)O2)O[C@H](Cc1ccc(O)c(O)c1)C(=O)O [compound 12, lithospermic acid]
Ki [1]: > 100 µM | viability at 72 h, 10 µM [2]: ~50% | Ki [3]: > 100 µM

Ki ([4]; stopped-flow CO2 hydrase assay, mean of three assays, errors ±5–10%, read-out: KI hCA II): > 100 µM | selectivity index (SI; KI hCA IX/KI hCA XII) [5]: 27.0 fold | Ki ([5]; stopped-flow CO2 hydrase assay, mean of three assays, errors ±5–10%, read-out: KI hCA XII): 96 nM | Ki ([6]; stopped-flow CO2 hydrase assay, mean of three assays, errors ±5–10%, read-out: KI hCA I): > 100 µM | Ki [7]: 2590 nM
Compound: COc1cc([C@@H]2Oc3c(OC)cc(/C=C/CO)cc3[C@H]2CO)ccc1O [compound 6, (-)-dehydrodiconiferyl alcohol]
viability at 72 h, 10 µM [2]: ~70%

Compound: COc1cc(/C=C/CO)cc(OC)c1O[C@@H]1O[C@H](CO)[C@@H](O)[C@H](O)[C@H]1O [compound 14, syringin]
Ki [4]: > 100 µM | viability at 72 h, 10 µM [2]: ~50% | Ki [5]: 92 nM | selectivity index (SI; KI hCA IX/KI hCA XII) [5]: 3.5 fold | Ki [6]: > 100 µM | Ki [7]: 320 nM

Compound: COc1ccccc1O [Guaiacol]
Ki hCA IX [8]: low micromolar range | Ki hCA XII [9]: low micromolar range
